Measured values taken from patent publication US20140275711A1, “1-(Arylmethyl)-5,6,7,8-tetrahydroquinazolline-2,4-diones and Analogs and the Use Thereof” (Impact Therapeutics, Inc., priority 2011, published 2014).
Like-named read-outs stand apart in the source and are kept apart here.

Key:
[1] = test system: SW620 human colorectal cancer cells; test: Potentiation of the growth inhibiting activity of MMS, MTT based cell viability assay; settings: read-out: Compounds potentiate the growth inhibiting activity of MMS (IC50)
Description: The synergistic potentiation effect of PARP inhibitors on the growth inhibiting activity of DNA damaging anticancer drugs such as methyl methanesulphonate (MIMS) were measured with SW620 human colorectal cancer cells (Shanghai Cancer Institute) using a MTT based cell viability assay. SW620 cells were grown and maintained in RPMI1640 (Gibco) medium supplemented with 10% FBS (Hyclone). In the first day of experiment, 4000 cells were seeded to each well of a 96-well cell culture plate and incubated at 37° C. and 5% CO2 in a cell culture incubator overnight. In the next day, the cell culture medium was removed. […] The serial dilutions of the reference compounds and the compounds to be tested were made with a 1:3 and 1:10 fashion in DMSO. The 10-fold concentrated solutions of these compounds were made by mixing 10 μl of the serial dilutions in DMSO with 90 μl fresh medium. The final concentration of DMSO in the medium was 1%. The cells were incubated at 37° C. in 5% CO2 cell culture incubator for additional 5 days (120 hours). Afterwards, the 96-well cell culture plate was taken out and 20 μl of MTT solution was added to each well and incubated at 37° C. for 4 h. The medium was removed and 100 μl DMSO was added to each well. The 96-well cell culture plates were shaked adequately for 10 min and readed in a Varioskan Flash plate reader (Thermo Fisher Scientific) at 520 and 690 nm. The data were analyzed by Prism 5 software (GraphPad). The obtained 520 nm absorbance readings substracting corresponding 690 nm reading were analyzed and plotted against the Log scale of the compound concentrations.

[2] = test system: Human breast cancer cell line T47D; test: Potentiation of MMS induced apoptosis, cell based caspase-3 activity assay; settings: read-out: Compounds potentiate the apoptosis inducing activity of MMS (EC50);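 also: Caspase-3 activity in cell lysates measured by fluorescence (RFU), EC50 fitted from sigmoidal curve of signal versus log compound concentration in presence of MMS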
PARP-1 enzyme = target: T1, PARP-1 enzyme (Homo sapiens, UniProt P09874); test: PARP-1 enzymatic activity assay (Trevigen 96-well kit); type: biochemical; settings: 0.5 unit PARP-1, histone pre-coated plate, 60 min room temperature; read-out: The inhibitory effect of compounds on PARP-1 enzymatic activity (IC50)
T1 construct: purchased Trevigen, Inc. 4676-096-K
Description: Briefly, PARP-1 catalyzes the NAD-dependent addition of poly(ADP-ribose) to its nuclear protein substrates such as histones. The assay kit measures the incorporation of biotynylated poly(ADP-ribose) onto histone proteins in a 96-well format.
To each well of histone pre-coated plate 10 μl of 5-fold concentrations of testing compounds or reference compound, 15 μl of PARP-1 enzyme (0.5 unit) and 25 μl reaction buffer were added and the plates were incubated at room temperature for 60 min. The plates were washed with 200 μl PBS with 0.1% Triton X-100 twice and then with 200 μl PBS twice. The residual liquid was removed by carefully tapping the plates on paper towels. Equal volumes of PeroxyGlow™ solution A and B were mixed and 100 μl of the solution was added to each well. The luminescence readings were read immediately in a Varioskan Flash plate reader (Thermo Fisher Scientific).

[3] = test system: BRCA-2 deficient CAPAN-1 human pancreatic cancer cells; test: Cell growth inhibition of BRCA-2 deficient CAPAN-1 cells, MTT based cell viability assay; settings: read-out: Growth inhibition of CAPAN-1 cells by compounds (IC50)
Description: BRCA-2 deficient CAPAN-1 human pancreatic cancer cells were used to test the growth inhibiting activity of substituted 1-(arylmethyl)-5,6,7,8-tetrahydroquinazoline-2,4(1H,3H)-diones. Briefly, CAPAN-1 cells are grown and maintained in IMEM medium supplemented with 20% FBS. The assay takes 10 days to finish. On day 1, 6000 CAPAN-1 cells are seeded to each well of a 96-well plate. The cells are incubated at 37° C. in a CO2 cell culture incubator overnight. […] Ten-fold compound solutions were made by mixing 10 μl DMSO serial dilution solutions with 90 μl fresh growth medium. The cell culture medium was removed and 180 μl fresh media with FBS and 20 μl of compound solutions were added to each well. The final concentration of DMSO was 1%. Cells were then returned to the CO2 cell culture incubator and incubated at 37° C. for two days (day 3 and day 4). On day 5, the same procedure as what was done on day 2 was repeated. Cell culture medium was removed and fresh medium containing serial dilutions of compounds or reference compounds were added. Cells were returned to the CO2 cell culture incubator and incubated for two more days. On day 8, same procedure was repeated again and fresh medium containing the testing compounds or reference compounds were added and incubated for an additional 2 days. On day 10, 20 μl of MTT reagent (5 mg/ml) was added to each well of the cell culture plate and incubated for 4 h. The cell culture media was removed and 100 μl DMSO was added to each well. The 96-well cell culture plates were shaked horizontally for 10 min and readed in a Varioskan Flash plate reader (Thermo Fisher Scientific) at 520 and 690 nm. The obtained 520 nm absorbance readings substracting corresponding 690 nm reading were analyzed using a commercial graphic software (GraphPad Prism 5) and plotted against the Log scale of the compound concentrations.

T1 sequence (P09874 whole entry): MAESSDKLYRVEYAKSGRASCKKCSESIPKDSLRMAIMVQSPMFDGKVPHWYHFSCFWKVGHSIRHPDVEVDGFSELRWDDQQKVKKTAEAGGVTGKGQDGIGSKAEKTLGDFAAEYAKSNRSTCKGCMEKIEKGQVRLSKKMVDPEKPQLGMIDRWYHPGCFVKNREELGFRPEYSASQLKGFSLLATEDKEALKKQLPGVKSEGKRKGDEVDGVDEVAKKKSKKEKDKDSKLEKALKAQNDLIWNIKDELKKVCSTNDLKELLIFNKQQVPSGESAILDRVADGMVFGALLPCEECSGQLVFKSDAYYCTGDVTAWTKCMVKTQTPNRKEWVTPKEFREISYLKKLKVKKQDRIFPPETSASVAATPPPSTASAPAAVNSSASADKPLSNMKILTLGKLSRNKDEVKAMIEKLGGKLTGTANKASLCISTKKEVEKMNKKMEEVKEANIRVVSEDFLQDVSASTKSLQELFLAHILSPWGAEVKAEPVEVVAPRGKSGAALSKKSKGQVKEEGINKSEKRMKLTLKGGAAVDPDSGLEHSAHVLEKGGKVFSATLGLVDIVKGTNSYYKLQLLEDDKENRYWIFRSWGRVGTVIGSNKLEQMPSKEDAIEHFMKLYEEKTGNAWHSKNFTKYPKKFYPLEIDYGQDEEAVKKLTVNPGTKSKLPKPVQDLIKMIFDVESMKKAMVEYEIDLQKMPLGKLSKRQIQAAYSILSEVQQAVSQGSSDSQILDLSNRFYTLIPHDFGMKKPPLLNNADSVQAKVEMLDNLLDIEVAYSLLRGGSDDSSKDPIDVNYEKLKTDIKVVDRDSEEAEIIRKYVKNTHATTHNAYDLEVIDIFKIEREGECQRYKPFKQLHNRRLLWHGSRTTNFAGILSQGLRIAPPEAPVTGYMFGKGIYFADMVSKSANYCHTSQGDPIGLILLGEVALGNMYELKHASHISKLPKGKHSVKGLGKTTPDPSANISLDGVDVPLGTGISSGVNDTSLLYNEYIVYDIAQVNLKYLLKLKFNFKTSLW

Structure (SMILES) | IC50 ([1]; Homo sapiens, SW-620, 120 h) [nM] | EC50 ([2]; Homo sapiens, T47D, 24 h) [nM] | IC50 (PARP-1 enzyme) [nM] | IC50 ([3]; Homo sapiens, CAPAN-1, 240 h) [nM] | IC50 ([1]; SW620 cells, medium containing 1.5 μg/ml MMS, 5 days (120 hours), MTT) [nM] | EC50 ([2]; T47D cells, 100 nM MMS, 24 hours, intracellular caspase-3 activity) [nM] | IC50 ([3]; BRCA-2 deficient CAPAN-1 cells, 10 day assay, MTT) [nM]
O=C(c1cc(Cn2c3c(c(=O)[nH]c2=O)CCCC3)ccc1F)N1CCN(c2ncccn2)CC1 [Example 20] | 0.83 | 0.99 | 2.6 | 17 |  |  | 
O=C(c1cc(Cn2c3c(c(=O)[nH]c2=O)SCCC3)ccc1F)N1CCN(c2ncccn2)CC1 [Example 60] |  |  |  |  | 7.6 | 30 | 761
